Experimental data: patent US10350271B2, “Lipidated peptides for lowering blood glucose” (USTAV ORGANICKE CHEMIE A BIOCHEMIE AKADEMIE VED CR, V.V.I., priority 2014, dated 2019)
Marks after values point to notes of the source that are not given here.

Tests used:
rat PrRP receptor = target: T1, rat PrRP receptor (Rattus norvegicus, UniProt Q64121); experiment: Competitive binding in RC-4B/C rat pituitary cells (125I-rat PrRP31)
T1 construct: host or cells: RC-4B/C rat pituitary cell line
T1 sequence (Q64121 1-370): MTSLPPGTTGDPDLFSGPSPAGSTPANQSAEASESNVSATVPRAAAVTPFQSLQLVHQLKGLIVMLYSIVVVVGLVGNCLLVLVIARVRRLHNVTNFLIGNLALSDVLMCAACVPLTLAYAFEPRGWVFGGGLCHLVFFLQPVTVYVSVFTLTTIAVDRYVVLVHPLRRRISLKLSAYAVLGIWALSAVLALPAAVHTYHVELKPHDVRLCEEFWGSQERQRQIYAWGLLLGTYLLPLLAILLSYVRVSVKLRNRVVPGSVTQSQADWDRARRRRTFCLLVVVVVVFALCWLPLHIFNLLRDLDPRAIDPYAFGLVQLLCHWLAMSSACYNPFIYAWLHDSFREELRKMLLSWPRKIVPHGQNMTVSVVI
Outline: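 Intact rat pituitary RC-4B/C cells incubated 60 min at room temperature with […] rat 125I-PrRP31 and unlabeled analog (10^−11 to 10^−4 mol·l^−1) in HEPES pH 7.4 buffer. Cell-bound radioactivity γ-counted after NaOH lysis; one-site competition fit.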

Wistar rats = experiment: Food intake in fasted rats after SC injection; format: in vivo; details: overnight fasted rats, compared to controls given vehicle
Procedure: (§1) NMRI mice, C57BL/6 mice, and Wistar rats (AnLab, Prague, Czech Republic) were housed in a temperature of 23° C. and a daily cycle of 12 h light and dark (light from 6:00). They were given ad libitum water and a standard chow diet that contained 25, 9 and 66% of calories of protein, fat and carbohydrate respectively. Energy content of the feed was 3.4 kcal/g (St-1, Mlýn Kocanda, Czech Republic). Db/db mice and their controls (C57BL/6 background) were obtained from Taconic (Denmark), housed under the same conditions as described above, and fed by Altromin (Taconic, Denmark). ZDF-Lepr^fa/Crl, diabetic fa/fa male rats were obtained from Charles River (France), housed under same conditions as described above, and fed with a Purina 5008 diet (IPS Product Supplies Limited, UK). All experiments followed the ethical guidelines for animal experiments and the law of the Czech Republic Nr. 246/1992.
In experiments with C57BL/6 mice or Wistar rats, food intake was measured with overnight fasted animals in individual cages. Food was withdrawn 17 hours prior to injection of lipidated analog of prolactin releasing peptide (PrRP); free access to water was maintained. The administration of either saline, PrRP, or lipidated analogs was performed by SC injection at doses of 1-10 mg/kg (which corresponded to a volume of 0.2 ml/mouse and 0.1 ml/100 g weight of rat). Fifteen minutes after the lipidated analog of prolactin releasing peptide (PrRP) administration, the mice were given pre-weighed food. The food was then weighed every 30 minutes for 5-10 hours. The administration of each dose was performed at least twice, and each group of mice consisted of at least 6 mice.

ZDF diabetic rats = experiment: 21 days repeated administration in diabetic ZDF rats (food intake, OGTT, metabolic parameters); format: in vivo
Procedure: (§2) Rats were subjected to a 21-day food intake experiment. ZDF rats were IP injected with either phosphate-buffered saline pH6 (control) or compound 43 or 52 at a dose of 1 and 5 mg/kg (n=8), twice a day for 21 days. After 21 days of treatment, rats were fasted overnight and OGTT was performed. After initial blood glucose measurement, 2 g/kg glucose solution was administered by oral gavage. Blood glucose was then measured at 15, 30, 60, 90, 120 and 180 min.
as §1
The ZDF rats were treated with vehicle or analogs 43 and 52 (1 and 5 mg/kg IP) dissolved in phosphate buffered saline, pH 6, twice daily for 21 days and sacrificed on day 22. Food intake was measured daily up to day 22. Leptin, insulin, cholesterol and HbA1c levels were measured on day 21. Glucose tolerance test (OGTT) was also performed on day 21.
as §2, with “min. […] The statistical significance, denoted by the asterisk (*), was *P<0.05.” for “min.”

C57BL/6 mice = experiment: Food intake in fasted mice after SC injection; format: in vivo; details: 5 mg/kg SC, 45 min after injection
Outline: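 Overnight-fasted animals (food removed 17 h before dosing, water available) in individual cages got saline, PrRP or lipidated PrRP analogs SC at 1-10 mg/kg.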

[1] = ZDF rats, 1 mg/kg IP twice daily
[2] = ZDF rats, 5 mg/kg IP twice daily
[3] = ZDF rats, day 21, 1 mg/kg IP twice daily
[4] = ZDF rats, day 21, 5 mg/kg IP twice daily

Question: Which Ki (rat PrRP receptor) does the source give for CCCCCCCCCCCCCCCC(=O)N[C@@H](CO)C(=O)N[C@@H](CCCNC(=N)N)C(=O)N[C@H](C(=O)N[C@@H](Cc1c[nH]cn1)C(=O)N[C@@H](CCCNC(=N)N)C(=O)N[C@@H](Cc1c[nH]cn1)C(=O)N[C@@H](CO)C(=O)N[C@@H](CCSC)C(=O)N[C@@H](CCC(=O)O)C(=O)N[C@H](C(=O)N[C@@H](CCCNC(=N)N)C(=O)N[C@H](C(=O)N1CCC[C@H]1C(=O)N[C@@H](CC(=O)O)C(=O)N[C@H](C(=O)N[C@@H](CC(N)=O)C(=O)N1CCC[C@H]1C(=O)N[C@@H](C)C(=O)N[C@@H](Cc1c[nH]c2ccccc12)C(=O)N[C@@H](Cc1ccc(O)cc1)C(=O)N[C@@H](C)C(=O)N[C@@H](CO)C(=O)N[C@@H](CCCNC(=N)N)C(=O)NCC(=O)N[C@H](C(=O)N[C@@H](CCCNC(=N)N)C(=O)N1CCC[C@H]1C(=O)N[C@H](C(=O)NCC(=O)N[C@@H](CCCNC(=N)N)C(=O)N[C@@H](Cc1ccccc1)C(N)=O)C(C)C)[C@@H](C)CC)[C@@H](C)CC)[C@@H](C)O)[C@@H](C)CC)[C@@H](C)O [Analog 43] here?
Answer: 0.95 ± 0.35 nM

Question: What about the “Displacement of rat 125I-PrRP binding” value (rat PrRP receptor; RC-4B/C cells, rat PrRP receptor) of the same compound?
Answer: nmol·l^−1 range

Question: And the “% of PrRP31, RC-4B/C rat pituitary cells” value (rat PrRP receptor; affinity relative to PrRP31)?
Answer: 519%

Question: And the “Food intake in rats” value (Wistar rats)?
Answer: significantly reduced

Question: And the “Food intake in free fed ZDF diabetic rats” value (ZDF diabetic rats; 5 mg/kg IP twice daily, vs vehicle)?
Answer: significantly lowered

Question: And the “Cumulative food intake Day 1” value (ZDF diabetic rats; [1])?
Answer: 40.8 ± 2.1 g

Question: And the “Cumulative food intake Day 1-7” value (ZDF diabetic rats; [1])?
Answer: 299.9 ± 8.9 g

Question: And the “Cumulative food intake Day 1-14” value (ZDF diabetic rats; [1])?
Answer: 572.5 ± 15.5 g

Question: What about the “Cumulative food intake Day 1-21” value (ZDF diabetic rats; [1]) of the same compound?
Answer: 817.7 ± 22.1 g

Question: And the “Cumulative food intake Day 1” value (ZDF diabetic rats; [2])?
Answer: 34.2 g

Question: And the “Cumulative food intake Day 1-7” value (ZDF diabetic rats; [2])?
Answer: 273.3 ± 20.4** g

Question: What about the “Cumulative food intake Day 1-14” value (ZDF diabetic rats; [2]) of the same compound?
Answer: 528.9 ± 36.0** g

Question: And the “Cumulative food intake Day 1-21” value (ZDF diabetic rats; [2])?
Answer: 768.2 g

Question: And the “OGTT blood glucose levels” value (ZDF diabetic rats; ZDF rats, 5 mg/kg twice daily for 21 days)?
Answer: significant lowering

Question: What about the “Blood cholesterol levels” value (ZDF diabetic rats; ZDF rats, 1 and 5 mg/kg twice daily, vs controls) of the same compound?
Answer: significantly lowered

Question: And the Cholesterol (ZDF diabetic rats; [3])?
Answer: 3.10 ± 0.12* mmol/l

Question: What about the Insulin (ZDF diabetic rats; [3]) of the same compound?
Answer: 267.69 ± 40.69 pmol/L

Question: What about the Leptin (ZDF diabetic rats; [3]) of the same compound?
Answer: 13297 ± 921 pg/mL

Question: And the Cholesterol (ZDF diabetic rats; [4])?
Answer: 2.91 ± 0.12** mmol/l

Question: And the Insulin (ZDF diabetic rats; [4])?
Answer: 271.84 ± 34.00 pmol/L

Question: And the Leptin (ZDF diabetic rats; [4])?
Answer: 16560 ± 4843 pg/mL

Question: What about the “Food intake in mice % of saline-treated group” value (C57BL/6 mice) of the same compound?
Answer: 30%
